Test results: patent publication US4311699A, “Aminoacid derivatives of cephalosporin compounds” (priority 1980, dated 1982)
≈ marks a conversion by molar mass, not a printed value.

What was measured:
Test in all cases: in vitro antibacterial activity, minimal inhibitory concentration
Type in all cases: cell-based
[1] = tested on: Pseudomonas UI 18; details: Pseudomonas UI 18, in vitro; for MIC: UI18
Source text: (§1) The compounds of the invention are new chemical compounds that are used as pharmacological agents and especially as broad spectrum antibacterial agents. They are active in vitro against strains of both gram-positive and gram-negative bacteria.
(§2) Minimal Inhibitory Concentration (μg/ml)

[2] = tested on: Entero. cloacae; details: for MIC: Enterobacter cloacae
Source text: as §1, §2

[3] = tested on: Staph. aureus S18733; details: for MIC: Staphylococcus aureus
Source text: as §1, §2

[4] = tested on: Strep. fec.
Source text: as §1, §2

[5] = tested on: E. coli Brig; details: for MIC: Escherichia coli
Source text: as §1, §2

[6] = tested on: Serr. marces.
Source text: as §1, §2

[7] = tested on: Klebs. pneu.
Source text: as §1, §2

[8] = tested on: Prot. vulg.
Source text: as §1, §2

[9] = tested on: Pseudomonas BRK 12-4-4; details: Pseudomonas BRK 12-4-4, in vitro; for MIC: BRK1244
Source text: as §1, §2

[10] = tested on: Pseudomonas #28; details: Pseudomonas #28, in vitro; for MIC: read-out: Minimal Inhibitory Concentration
Source text: as §1, §2

[11] = tested on: E. coli Vogel; details: for MIC: Escherichia coli
Source text: as §1, §2

[12] = tested on: Staph. aureus UC-76; details: Staph. aureus UC-76, in vitro; for MIC: Staphylococcus aureus, UC76
Source text: as §1, §2

In the case of `CC(=O)N[C@H](C)C(=O)Nc1ccc(-c2ncc(C(=O)N[C@@H](C(=O)N[C@@H]3C(=O)N4C(C(=O)O)=C(COC(N)=O)CS[C@H]34)c3ccccc3)c(O)n2)cc1` [Example 21], the MIC [1] is reported as 12.5 µg/mL (≈ 17.1 µM), the MIC [2] is reported as 25 µg/mL (≈ 34.1 µM) and the MIC [3] is reported as 1.6 µg/mL (≈ 2.18 µM). It also gave an MIC [4] of 25 µg/mL (≈ 34.1 µM), an MIC [5] of 25 µg/mL (≈ 34.1 µM) and an MIC [6] greater than 50 µg/mL. For the same compound, the MIC [7] was 12.5 µg/mL (≈ 17.1 µM), the MIC [8] was 12.5 µg/mL (≈ 17.1 µM) and the MIC [9] was 12.5 µg/mL (≈ 17.1 µM). The MIC [10] was 3.1 µg/mL (≈ 4.23 µM), the MIC [11] was 12.5 µg/mL (≈ 17.1 µM) and the MIC [12] was 0.8 µg/mL (≈ 1.09 µM).

`CC(=O)NCCC(=O)Nc1ccc(-c2ncc(C(=O)N[C@@H](C(=O)N[C@@H]3C(=O)N4C(C(=O)O)=C(COC(C)=O)CS[C@H]34)c3ccccc3)c(O)n2)cc1` [Example 3] was tested, and the MIC [1] was 6.3 µg/mL (≈ 8.61 µM), the MIC [2] was 50 µg/mL (≈ 68.3 µM) and the MIC [3] was 6.3 µg/mL (≈ 8.61 µM). It also gave an MIC [4] of 50 µg/mL (≈ 68.3 µM), an MIC [5] of 25 µg/mL (≈ 34.2 µM) and an MIC [6] of less than 50 µg/mL. The MIC [7] was 12.5 µg/mL (≈ 17.1 µM), the MIC [8] was 12.5 µg/mL (≈ 17.1 µM) and the MIC [9] was 12.5 µg/mL (≈ 17.1 µM). For the same compound, the MIC [10] was 6.3 µg/mL (≈ 8.61 µM), the MIC [11] was 12.5 µg/mL (≈ 17.1 µM) and the MIC [12] was 1.6 µg/mL (≈ 2.19 µM).

With `CC(=O)N1C[C@H](O)C[C@H]1C(=O)Nc1ccc(-c2ncc(C(=O)N[C@@H](C(=O)NC3C(=O)N4C(C(=O)O)=C(CSc5nnnn5C)CS[C@H]34)c3ccccc3)c(O)n2)cc1` (stereo partly drawn) [Example 30, N-[2[4-(N-Acetyl-L-hydroxyprolylamino)phenyl]-4-hydroxy-5-pyrimidinylcarbonyl]-7-[D-2-amino2-phenylacetamido]-3-[[(1-methyl-1H-tetrazol-5-yl)thio]methyl]-3-cephem-4-carboxylic acid] the “Minimal Inhibitory Concentration” value [1] was 6.3 µg/mL, the “Minimal Inhibitory Concentration” value [2] was 6.3 µg/mL and the “Minimal Inhibitory Concentration” value [3] was 12.5 µg/mL. For the same compound, the “Minimal Inhibitory Concentration” value [4] was greater than 50 µg/mL, the “Minimal Inhibitory Concentration” value [5] was 12.5 µg/mL and the “Minimal Inhibitory Concentration” value [6] was greater than 50 µg/mL. The “Minimal Inhibitory Concentration” value [7] was 3.1 µg/mL, the “Minimal Inhibitory Concentration” value [8] was 25 µg/mL and the “Minimal Inhibitory Concentration” value [9] was 12.5 µg/mL. For the same compound, the “Minimal Inhibitory Concentration” value [10] was 6.3 µg/mL, the “Minimal Inhibitory Concentration” value [11] was 3.1 µg/mL and the “Minimal Inhibitory Concentration” value [12] was 3.1 µg/mL.

`CC(=O)N[C@H](C)C(=O)Nc1ccc(-c2ncc(C(=O)N[C@@H](C(=O)N[C@@H]3C(=O)N4C(C(=O)O)=C(COC(C)=O)CS[C@H]34)c3ccc(O)cc3)c(O)n2)cc1` [Example 11, N-[2-[4-(N-Acetyl-D-alanylamino)phenyl]-4-hydroxy-5-pyrimidinylcarbonyl]-7-[D-2-amino-2-(4-hydroxyphenyl)-acetamido]-3-acetoxymethyl-3-cephem-4-carboxylic acid] showed an MIC [1] of 6.3 µg/mL (≈ 8.43 µM), an MIC [2] of 50 µg/mL (≈ 66.9 µM) and an MIC [3] of 25 µg/mL (≈ 33.4 µM). The MIC [4] was 50 µg/mL (≈ 66.9 µM), the MIC [5] was 50 µg/mL (≈ 66.9 µM) and the MIC [6] was greater than 50 µg/mL. It also gave an MIC [7] of 25 µg/mL (≈ 33.4 µM), an MIC [8] of 12.5 µg/mL (≈ 16.7 µM) and an MIC [9] of 6.3 µg/mL (≈ 8.43 µM). It also gave an MIC [10] of 3.1 µg/mL (≈ 4.15 µM), an MIC [11] of 6.3 µg/mL (≈ 8.43 µM) and an MIC [12] of 6.3 µg/mL (≈ 8.43 µM).

Compound `CC(=O)N[C@@H](C(=O)Nc1ccc(-c2ncc(C(=O)N[C@@H](C(=O)N[C@@H]3C(=O)N4C(C(=O)O)=C(COC(C)=O)CS[C@H]34)c3ccccc3)c(O)n2)cc1)C(C)C` [Example 17, N-[2-[4-(N-Acetyl-D-valylamino)phenyl]-4-hydroxy-5-pyrimidinylcarbonyl]-7-[D-2-amino-2-phenylacetamido]-3-acetoxymethyl-3-cephem-4-carboxylic acid] has an MIC [1] of 6.3 µg/mL (≈ 8.29 µM), an MIC [2] of 25 µg/mL (≈ 32.9 µM) and an MIC [3] of 6.3 µg/mL (≈ 8.29 µM). It also gave an MIC [4] of 50 µg/mL (≈ 65.8 µM), an MIC [5] of 12.5 µg/mL (≈ 16.5 µM) and an MIC [6] greater than 50 µg/mL. It also gave an MIC [7] of 12.5 µg/mL (≈ 16.5 µM), an MIC [8] of 25 µg/mL (≈ 32.9 µM) and an MIC [9] of 12.5 µg/mL (≈ 16.5 µM). The MIC [10] was 6.3 µg/mL (≈ 8.29 µM), the MIC [11] was 6.3 µg/mL (≈ 8.29 µM) and the MIC [12] was 1.6 µg/mL (≈ 2.11 µM).

`CC(=O)OCC1=C(C(=O)O)N2C(=O)[C@@H](NC(=O)[C@H](NC(=O)c3cnc(-c4ccc(NC(=O)[C@@H](C)N)cc4)nc3O)c3ccccc3)[C@H]2SC1` [Example 18, N-[2-[4-(D-Alanylamino)phenyl]-4-hydroxy-5-pyrimidinylcarbonyl]-7-[D-2-amino-2-phenylacetamido]-3-acetoxymethyl-3cephem-4-carboxylic acid] gave an MIC [1] of 1.6 µg/mL (≈ 2.32 µM), an MIC [2] of 50 µg/mL (≈ 72.5 µM) and an MIC [3] of 6.3 µg/mL (≈ 9.13 µM). It also gave an MIC [4] of 25 µg/mL (≈ 36.2 µM), an MIC [5] of 50 µg/mL (≈ 72.5 µM) and an MIC [6] greater than 50 µg/mL. The MIC [7] was 25 µg/mL (≈ 36.2 µM), the MIC [8] was 25 µg/mL (≈ 36.2 µM) and the MIC [9] was 6.3 µg/mL (≈ 9.13 µM). It also gave an MIC [10] of 3.1 µg/mL (≈ 4.49 µM), an MIC [11] of 12.5 µg/mL (≈ 18.1 µM) and an MIC [12] of 1.6 µg/mL (≈ 2.32 µM).
